We go through 3 compounds from publication PMC9078263 (RSC Advances, 2018).

This test deals with New Delhi metallo-β-lactamase 1 (NDM-1) (Acinetobacter baumannii, UniProt F8UNN7). The test is described as follows: steady-state kinetics of hydrolysis. The class given is biochemical.

Broadly, the Km is the concentration of substrate that gives half-maximal velocity.

The structures appear in SMILES notation.

Sequence of New Delhi metallo-β-lactamase 1 (NDM-1) (F8UNN7 1-270): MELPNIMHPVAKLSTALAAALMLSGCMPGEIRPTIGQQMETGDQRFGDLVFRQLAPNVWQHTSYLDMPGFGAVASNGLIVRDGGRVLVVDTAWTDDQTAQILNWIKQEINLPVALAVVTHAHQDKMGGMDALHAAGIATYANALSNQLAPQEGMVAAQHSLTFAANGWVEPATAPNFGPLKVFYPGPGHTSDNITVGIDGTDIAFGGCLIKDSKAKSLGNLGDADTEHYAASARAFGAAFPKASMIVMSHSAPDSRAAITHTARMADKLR

For `CO[C@@]1(NC(=O)Cc2cccs2)C(=O)N2C(C(=O)O)=C(COC(N)=O)CS[C@@H]21` [cefoxitin], the Km is more than 60 µM.

For the compound `CC(C)(O/N=C(\C(=O)N[C@@H]1C(=O)N2C(C(=O)[O-])=C(C[n+]3ccccc3)CS[C@H]12)c1csc(N)n1)C(=O)O` [ceftazidime], the Michaelis-Menten constant (Km) was more than 60 µM.

With `C[C@@H](O)[C@H]1C(=O)N2C(C(=O)O)=C(S[C@@H]3CN[C@H](C(=O)N(C)C)C3)[C@H](C)[C@H]12` [meropenem], the Km is more than 60 µM.
